Test results reported in publication PMC10163259, “KK-LC-1 as a therapeutic target to eliminate ALDH^+ stem cells in triple negative breast cancer” (Nature Communications, 2023).

Molecular target: T1, KK-LC-1 (Homo sapiens, UniProt Q5H943)
T1 construct: gene CT83; purified KK-LC-1 protein, biotinylated, immobilised on Super Streptavidin sensors
T1 sequence (Q5H943 1-113): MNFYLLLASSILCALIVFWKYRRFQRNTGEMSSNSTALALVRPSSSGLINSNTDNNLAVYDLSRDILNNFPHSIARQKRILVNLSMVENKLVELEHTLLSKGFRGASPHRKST
Test: biolayer interferometry (Octet K2)
Format: binding
Settings: 30 °C; PBS with 0.1% BSA, 0.01% Tween-20, 1% DMSO; biotinylated KK-LC-1 immobilised; from kon/koff

Cc1ccc(CNC(=O)c2nnc(CN(C)C3CCc4ccccc43)s2)cc1 (stereo not shown) [Z8, Z839878730]
Kd: 4.3 µM
